Measurements reported in PubChem BioAssay AID1963847 (Molecular Pharmacology Branch, DTP, NCI, 2024).

System: 415267-285-R-J2-PDC complex spheroid viability
Experiment: Anticancer human tumor 415267-285-R-J2-PDC patient-derived breast carcinoma cell line growth inhibition [POLQ]
Details: for IC50: curve of first compound; for viability, T/C: stronger effect = lower value
Outline: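 PDC + HUVEC + MSC complex spheroids; POLQ inhibitors ± partner drugs; top conc. at/near clinical Cmax, else 10 microM (SN-38 1 microM), half-log dilutions; 37 degrees C, 5% CO2.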

[1] = second compound 0.0316 µM, first compound 0.0316 µM
[2] = second compound 0.0316 µM, first compound 0.1 µM
[3] = second compound 0.0316 µM, first compound 0.316 µM
[4] = second compound 0.0316 µM, first compound 1 µM
[5] = second compound 0.0316 µM, first compound 3.16 µM
[6] = second compound 0.0316 µM, first compound 10 µM
[7] = second compound 0.1 µM, first compound 0.0316 µM
[8] = second compound 0.1 µM, first compound 0.1 µM
[9] = second compound 0.1 µM, first compound 0.316 µM
[10] = second compound 0.1 µM, first compound 1 µM
[11] = second compound 0.1 µM, first compound 3.16 µM
[12] = second compound 0.1 µM, first compound 10 µM
[13] = second compound 0.316 µM, first compound 0.0316 µM
[14] = second compound 0.316 µM, first compound 0.1 µM
[15] = second compound 0.316 µM, first compound 0.316 µM
[16] = second compound 0.316 µM, first compound 1 µM
[17] = second compound 0.316 µM, first compound 3.16 µM
[18] = second compound 0.316 µM, first compound 10 µM
[19] = second compound 1 µM, first compound 0.0316 µM
[20] = second compound 1 µM, first compound 0.1 µM
[21] = second compound 1 µM, first compound 0.316 µM
[22] = second compound 1 µM, first compound 1 µM
[23] = second compound 1 µM, first compound 3.16 µM
[24] = second compound 1 µM, first compound 10 µM
[25] = second compound 3.16 µM, first compound 0.0316 µM
[26] = second compound 3.16 µM, first compound 0.1 µM
[27] = second compound 3.16 µM, first compound 0.316 µM
[28] = second compound 3.16 µM, first compound 1 µM
[29] = second compound 3.16 µM, first compound 3.16 µM
[30] = second compound 3.16 µM, first compound 10 µM
[31] = second compound 10 µM, first compound 0.0316 µM
[32] = second compound 10 µM, first compound 0.1 µM
[33] = second compound 10 µM, first compound 0.316 µM
[34] = second compound 10 µM, first compound 1 µM
[35] = second compound 10 µM, first compound 3.16 µM
[36] = second compound 10 µM, first compound 10 µM
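Further: spheroids exposed to compounds for one week before readout.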
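Wherever viability, T/C is given: luminescence used as stand-in measure of viable cells; 100% = DMSO vehicle control viability.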

CCc1cc2c(N3CCc4c(cc(Cn5ccnc5)cc4-c4cn(C)nc4C(F)(F)F)C3=O)cc(C)nc2c(OC)n1 + Cc1cccc(N(C)C(=O)C2C(O)CCN2c2nc(C)cc(C(F)(F)F)c2C#N)c1 was tested, and the IC50 (second compound 0.0316 µM) was > 10 µM, the IC50 (second compound 0.1 µM) was > 10 µM and the IC50 (second compound 0.316 µM) was > 10 µM. The IC50 (second compound 1 µM) was > 10 µM, the IC50 (second compound 3.16 µM) was > 10 µM and the IC50 (second compound 10 µM) was > 10 µM. The viability, T/C [1] was 92.6%, the viability, T/C [2] was 98.2% and the viability, T/C [3] was 82%. For the same compound, the viability, T/C [4] was 91.5%, the viability, T/C [5] was 90% and the viability, T/C [6] was 77.1%. It also gave a viability, T/C [7] of 93%, a viability, T/C [8] of 89.3% and a viability, T/C [9] of 83%. The viability, T/C [10] was 89.8%, the viability, T/C [11] was 81% and the viability, T/C [12] was 71.7%. For the same compound, the viability, T/C [13] was 97.7%, the viability, T/C [14] was 91.4% and the viability, T/C [15] was 95.1%. The viability, T/C [16] was 89.7%, the viability, T/C [17] was 85.1% and the viability, T/C [18] was 80.2%. For the same compound, the viability, T/C [19] was 102%, the viability, T/C [20] was 81.4% and the viability, T/C [21] was 84.5%. It also gave a viability, T/C [22] of 91.7%, a viability, T/C [23] of 88.7% and a viability, T/C [24] of 74.7%. It also gave a viability, T/C [25] of 92.3%, a viability, T/C [26] of 99.7% and a viability, T/C [27] of 90.7%. For the same compound, the viability, T/C [28] was 89.8%, the viability, T/C [29] was 84.8% and the viability, T/C [30] was 87.9%. It also gave a viability, T/C [31] of 90.3%, a viability, T/C [32] of 95.7% and a viability, T/C [33] of 89.2%. The viability, T/C [34] was 91.7%, the viability, T/C [35] was 81.2% and the viability, T/C [36] was 81.7%.

With CCc1cc2c(N3CCc4c(cc(Cn5ccnc5)cc4-c4cn(C)nc4C(F)(F)F)C3=O)ccnc2c(OC)n1 + Cc1cccc(N(C)C(=O)C2C(O)CCN2c2nc(C)cc(C(F)(F)F)c2C#N)c1 the IC50 (second compound 0.0316 µM) was > 10 µM, the IC50 (second compound 0.1 µM) was > 10 µM and the IC50 (second compound 0.316 µM) was > 10 µM. The IC50 (second compound 1 µM) was > 10 µM, the IC50 (second compound 3.16 µM) was > 10 µM and the IC50 (second compound 10 µM) was > 10 µM. It also gave a viability, T/C [1] of 88.4%, a viability, T/C [2] of 94.8% and a viability, T/C [3] of 88.7%. For the same compound, the viability, T/C [4] was 86.2%, the viability, T/C [5] was 92.8% and the viability, T/C [6] was 79.2%. For the same compound, the viability, T/C [7] was 102%, the viability, T/C [8] was 99.8% and the viability, T/C [9] was 80.2%. The viability, T/C [10] was 89%, the viability, T/C [11] was 95.4% and the viability, T/C [12] was 77.2%. For the same compound, the viability, T/C [13] was 105%, the viability, T/C [14] was 96.1% and the viability, T/C [15] was 88.5%. The viability, T/C [16] was 88.7%, the viability, T/C [17] was 89.8% and the viability, T/C [18] was 88.7%. The viability, T/C [19] was 92.3%, the viability, T/C [20] was 91.5% and the viability, T/C [21] was 88.1%. It also gave a viability, T/C [22] of 88.2%, a viability, T/C [23] of 91.2% and a viability, T/C [24] of 86.2%. For the same compound, the viability, T/C [25] was 102%, the viability, T/C [26] was 98.3% and the viability, T/C [27] was 82.3%. For the same compound, the viability, T/C [28] was 101%, the viability, T/C [29] was 92.2% and the viability, T/C [30] was 85.4%. For the same compound, the viability, T/C [31] was 100%, the viability, T/C [32] was 100% and the viability, T/C [33] was 99.6%. It also gave a viability, T/C [34] of 99.8%, a viability, T/C [35] of 82.5% and a viability, T/C [36] of 77.8%.

Compound COc1ccc([C@@H](O)c2cc(-c3ncnc4cc(N5CCOCC5)ccc34)c(F)cc2Cl)nn1 + Cc1cccc(N(C)C(=O)C2C(O)CCN2c2nc(C)cc(C(F)(F)F)c2C#N)c1 has an IC50 (second compound 0.0316 µM) of 7.65 µM, an IC50 (second compound 0.1 µM) of 7.73 µM and an IC50 (second compound 0.316 µM) of 7.44 µM. The IC50 (second compound 1 µM) was 7.62 µM, the IC50 (second compound 3.16 µM) was 7.22 µM and the IC50 (second compound 10 µM) was 4.74 µM. It also gave a viability, T/C [1] of 89.5%, a viability, T/C [2] of 103% and a viability, T/C [3] of 98.9%. For the same compound, the viability, T/C [4] was 102%, the viability, T/C [5] was 74% and the viability, T/C [6] was 42.7%. It also gave a viability, T/C [7] of 93.9%, a viability, T/C [8] of 102% and a viability, T/C [9] of 110%. It also gave a viability, T/C [10] of 91%, a viability, T/C [11] of 82.1% and a viability, T/C [12] of 40.9%. For the same compound, the viability, T/C [13] was 99.3%, the viability, T/C [14] was 102% and the viability, T/C [15] was 98.5%. For the same compound, the viability, T/C [16] was 100%, the viability, T/C [17] was 81.3% and the viability, T/C [18] was 39%. It also gave a viability, T/C [19] of 99%, a viability, T/C [20] of 91.3% and a viability, T/C [21] of 92.7%. It also gave a viability, T/C [22] of 93.2%, a viability, T/C [23] of 69.4% and a viability, T/C [24] of 44%. It also gave a viability, T/C [25] of 93.1%, a viability, T/C [26] of 100% and a viability, T/C [27] of 98%. It also gave a viability, T/C [28] of 88.9%, a viability, T/C [29] of 75.5% and a viability, T/C [30] of 39.9%. The viability, T/C [31] was 101%, the viability, T/C [32] was 99.3% and the viability, T/C [33] was 94.5%. For the same compound, the viability, T/C [34] was 86%, the viability, T/C [35] was 59.7% and the viability, T/C [36] was 31.6%.

With O=C(Nc1ccc(O)c(NS(=O)(=O)c2ccc(F)cc2)c1)c1ccc(-c2ccccc2)cc1 + Cc1cccc(N(C)C(=O)C2C(O)CCN2c2nc(C)cc(C(F)(F)F)c2C#N)c1 the IC50 (second compound 0.0316 µM) was > 10 µM, the IC50 (second compound 0.1 µM) was > 10 µM and the IC50 (second compound 0.316 µM) was > 10 µM. The IC50 (second compound 1 µM) was > 10 µM, the IC50 (second compound 3.16 µM) was > 10 µM and the IC50 (second compound 10 µM) was > 10 µM. The viability, T/C [1] was 112%, the viability, T/C [2] was 120% and the viability, T/C [3] was 105%. For the same compound, the viability, T/C [4] was 106%, the viability, T/C [5] was 101% and the viability, T/C [6] was 63.4%. For the same compound, the viability, T/C [7] was 98.5%, the viability, T/C [8] was 101% and the viability, T/C [9] was 100%. For the same compound, the viability, T/C [10] was 104%, the viability, T/C [11] was 100% and the viability, T/C [12] was 62.7%. For the same compound, the viability, T/C [13] was 109%, the viability, T/C [14] was 94.3% and the viability, T/C [15] was 93.3%. The viability, T/C [16] was 101%, the viability, T/C [17] was 102% and the viability, T/C [18] was 66.9%. It also gave a viability, T/C [19] of 115%, a viability, T/C [20] of 95.5% and a viability, T/C [21] of 109%. For the same compound, the viability, T/C [22] was 103%, the viability, T/C [23] was 103% and the viability, T/C [24] was 63.3%. It also gave a viability, T/C [25] of 99.2%, a viability, T/C [26] of 106% and a viability, T/C [27] of 113%. The viability, T/C [28] was 99.3%, the viability, T/C [29] was 94.2% and the viability, T/C [30] was 71.6%. It also gave a viability, T/C [31] of 98.1%, a viability, T/C [32] of 106% and a viability, T/C [33] of 114%. It also gave a viability, T/C [34] of 106%, a viability, T/C [35] of 95.3% and a viability, T/C [36] of 61.7%.
